Experimental data reported in patent publication US12708116B2, “Herbicidal compositions comprising 2,4-D” (BASF SE, priority 2023, dated 2026).

Experiments:
Experiment in all cases: Post-emergence application in field trials
SETVI = type: in vivo, Setaria viridis; details: 15 DAT; g ai/ha A-1 12.5, B-5 1066, C-10 840; growth stage 13-19; height 2-18 cm; water volume 140 l/ha
ECHCG = type: in vivo, Echinochloa crus-galli
CYPES = details: 21 DAT, water volume 140 l/ha
DATST = test system: DATST
DIGSA = test system: DIGSA
HORVW = details: growth stage 23-29, height 20-25 cm
PORPI = type: in vivo; details: 8 DAT; g ai/ha A-1 25, B-5 1066; height 2-8 cm; water volume 140 l/ha
SETVE = details: growth stage 21-23
GLXMA = type: in vivo, Glycine max; details: Example 4; 21 DAT; g ai/ha A-1 12.5, B-5 1066; growth stage 13; height 5-8 cm
AMATU = type: in vivo, Amaranthus tuberculatos; details: 8 DAT; g ai/ha A-1 12.5, B-5 1066; growth stage 19; height 10-20 cm; water volume 140 l/ha
ZEAMX = details: growth stage 15-16
AMAPA = test system: AMAPA
AMARE = type: in vivo, Amaranthus retroflexus; details: 8 DAT; g ai/ha A-1 25, B-5 1066; growth stage 19; height 10-20 cm; water volume 140 l/ha

CCOC(=O)COc1ccccc1Oc1nc(-n2c(=O)cc(C(F)(F)F)n(C)c2=O)c(F)cc1Cl [A-1, ethyl 2-[2-[[3-chloro-5-fluoro-6-[3-methyl-2,6-dioxo-4-(trifluoromethyl)pyrimidin-1-yl]-2-pyridyl]oxy]phenoxy]acetate]
% Herbicidal activity (SETVI): 68%
% Herbicidal activity (ECHCG; 13 DAT, g ai/ha A-1 12.5, B-5 1066, C-10 840, growth stage 21-26, height 15-30 cm, water volume 187 l/ha): 23%
% Herbicidal activity (ECHCG; 13 DAT, g ai/ha A-1 25, B-5 1066, C-10 840, growth stage 21-26, height 15-30 cm, water volume 187 l/ha): 20%
% Herbicidal activity (ECHCG; 13 DAT, g ai/ha A-1 50, B-5 1066, C-10 840, growth stage 21-26, height 15-30 cm, water volume 187 l/ha): 23%
% Herbicidal activity (ECHCG; Example 4, 21 DAT, g ai/ha A-1 12.5, B-5 1066, growth stage 23-30, height 15-20 cm): 30%
% Herbicidal activity (ECHCG; Example 6, 7 DAT, g ai/ha A-1 12.5, B-5 1066, C-11 400, growth stage 23-30, height 15-20 cm): 20%
% Herbicidal activity (ECHCG; Example 6, 28 DAT, g ai/ha A-1 12.5, B-5 1066, C-11 400, growth stage 23-30, height 15-20 cm): 20%
% Herbicidal activity (ECHCG; Example 7, 28 DAT, g ai/ha A-1 12.5, B-4 1066, C-11 400, growth stage 23-30, height 15-20 cm): 20%
% Herbicidal activity (ECHCG; Example 8, 7 DAT, g ai/ha A-1 12.5, B-5 1066, C-12 252, growth stage 23-30, height 15-20 cm): 20%
% Herbicidal activity (ECHCG; Example 8, 21 DAT, g ai/ha A-1 12.5, B-5 1066, C-12 252, growth stage 23-30, height 15-20 cm): 30%
% Herbicidal activity (ECHCG; Example 8, 28 DAT, g ai/ha A-1 12.5, B-5 1066, C-12 252, growth stage 23-30, height 15-20 cm): 20%
% Herbicidal activity (ECHCG; Example 9, 28 DAT, g ai/ha A-1 12.5, B-4 1066, C-12 252, growth stage 23-30, height 15-20 cm): 20%
% Herbicidal activity (ECHCG; Example 10, 21 DAT, g ai/ha A-1 12.5, B-5 1066, C-4 12.5, growth stage 23-30, height 15-20 cm): 30%
% Herbicidal activity (CYPES; g ai/ha A-1 12.5, B-5 1066, C-11 655): 20%
% Herbicidal activity (CYPES; g ai/ha A-1 50, B-5 1066, C-11 655): 42%
% Herbicidal activity (CYPES; g ai/ha A-1 50, B-5 1066): 42%
% Herbicidal activity (DATST; Example 4, 7 DAT, g ai/ha A-1 12.5, B-5 1066): 90%
% Herbicidal activity (DATST; Example 6, 21 DAT, g ai/ha A-1 12.5, B-5 1066, C-11 400): 90%
% Herbicidal activity (DIGSA; 14 DAT, g ai/ha A-1 12.5, B-5 1066, height 2-8 cm, water volume 140 l/ha): 33%
% Herbicidal activity (DIGSA; 14 DAT, g ai/ha A-1 25, B-5 1066, height 2-8 cm, water volume 140 l/ha): 33%
% Herbicidal activity (DIGSA; 14 DAT, g ai/ha A-1 50, B-5 1066, height 2-8 cm, water volume 140 l/ha): 65%
% Herbicidal activity (DIGSA; 15 DAT, g ai/ha A-1 12.5, B-5 1066, C-10 840, growth stage 13-19, height 2-13 cm, water volume 140 l/ha): 68%
% Herbicidal activity (DIGSA; 21 DAT, g ai/ha A-1 12.5, B-5 1066, C-11 655, height 2-8 cm, water volume 140 l/ha): 27%
% Herbicidal activity (DIGSA; 21 DAT, g ai/ha A-1 12.5, B-5 1066, height 2-8 cm, water volume 140 l/ha): 27%
% Herbicidal activity (DIGSA; 21 DAT, g ai/ha A-1 25, B-5 1066, C-11 655, height 2-8 cm, water volume 140 l/ha): 28%
% Herbicidal activity (DIGSA; 21 DAT, g ai/ha A-1 25, B-5 1066, height 2-8 cm, water volume 140 l/ha): 28%
% Herbicidal activity (DIGSA; 21 DAT, g ai/ha A-1 50, B-5 1066, C-11 655, height 2-8 cm, water volume 140 l/ha): 55%
% Herbicidal activity (DIGSA; 21 DAT, g ai/ha A-1 50, B-5 1066, height 2-8 cm, water volume 140 l/ha): 55%
% Herbicidal activity (DIGSA; Example 6, 7 DAT, g ai/ha A-1 12.5, B-5 1066, C-11 400, growth stage 21-22, height 15-20 cm): 35%
% Herbicidal activity (DIGSA; Example 6, 21 DAT, g ai/ha A-1 12.5, B-5 1066, C-11 400, growth stage 21-22, height 15-20 cm): 35%
% Herbicidal activity (HORVW; Example 4, 21 DAT, g ai/ha A-1 12.5, B-5 1066): 60%
% Herbicidal activity (HORVW; Example 5, 7 DAT, g ai/ha A-1 12.5, B-4 1066): 60%
% Herbicidal activity (HORVW; Example 6, 28 DAT, g ai/ha A-1 12.5, B-5 1066, C-11 400): 60%
% Herbicidal activity (HORVW; Example 7, 28 DAT, g ai/ha A-1 12.5, B-4 1066, C-11 400): 90%
% Herbicidal activity (HORVW; Example 8, 21 DAT, g ai/ha A-1 12.5, B-5 1066, C-12 252): 80%
% Herbicidal activity (HORVW; Example 9, 21 DAT, g ai/ha A-1 12.5, B-4 1066, C-12 252): 80%
% Herbicidal activity (HORVW; Example 10, 21 DAT, g ai/ha A-1 12.5, B-5 1066, C-4 12.5): 80%
% Herbicidal activity (HORVW; Example 11, 21 DAT, g ai/ha A-1 12.5, B-4 1066, C-4 12.5): 80%
% Herbicidal activity (PORPI): 90%
% Herbicidal activity (SETVE; Example 4, 21 DAT, g ai/ha A-1 12.5, B-5 1066, height 8-16 cm): 65%
% Herbicidal activity (SETVE; Example 6, 7 DAT, g ai/ha A-1 12.5, B-5 1066, C-11 400, height 10-15 cm): 75%
% Herbicidal activity (SETVE; Example 6, 21 DAT, g ai/ha A-1 12.5, B-5 1066, C-11 400, height 10-15 cm): 55%
% Herbicidal activity (GLXMA): 90%
% Herbicidal activity (AMATU): 88%
% Herbicidal activity (ZEAMX; Example 4, 7 DAT, g ai/ha A-1 18, B-5 1066, height 50-60 cm): 85%
% Herbicidal activity (ZEAMX; Example 4, 21 DAT, g ai/ha A-1 12.5, B-5 1066, height 50-60 cm): 80%
% Herbicidal activity (ZEAMX; Example 5, 21 DAT, g ai/ha A-1 12.5, B-4 1066, height 50-60 cm): 70%
% Herbicidal activity (ZEAMX; Example 6, 7 DAT, g ai/ha A-1 12.5, B-5 1066, C-11 400, height 25-30 cm): 40%
% Herbicidal activity (ZEAMX; Example 6, 28 DAT, g ai/ha A-1 12.5, B-5 1066, C-11 400, height 50-60 cm): 85%
% Herbicidal activity (ZEAMX; Example 7, 28 DAT, g ai/ha A-1 12.5, B-4 1066, C-11 400, height 50-60 cm): 50%
% Herbicidal activity (ZEAMX; Example 8, 28 DAT, g ai/ha A-1 12.5, B-5 1066, C-12 252, height 50-60 cm): 85%
% Herbicidal activity (ZEAMX; Example 9, 28 DAT, g ai/ha A-1 12.5, B-4 1066, C-12 252, height 50-60 cm): 50%
% Herbicidal activity (ZEAMX; Example 11, 21 DAT, g ai/ha A-1 12.5, B-4 1066, C-4 12.5, height 50-60 cm): 70%
% Herbicidal activity (AMAPA; 13 DAT, g ai/ha A-1 25, B-5 1066, growth stage 16, height 15-25 cm, water volume 187 l/ha): 58%
% Herbicidal activity (AMAPA; 14 DAT, g ai/ha A-1 12.5, B-5 1066, C-10 840, growth stage 12-24, height 5-30 cm, water volume 140 l/ha): 73%
% Herbicidal activity (AMAPA; 14 DAT, g ai/ha A-1 25, B-5 1066, C-10 840, growth stage 12-24, height 5-30 cm, water volume 140 l/ha): 82%
% Herbicidal activity (AMAPA; 19 DAT, g ai/ha A-1 12.5, B-5 1066, growth stage 16, height 15-25 cm, water volume 187 l/ha): 40%
% Herbicidal activity (AMAPA; 19 DAT, g ai/ha A-1 25, B-5 1066, growth stage 16, height 15-25 cm, water volume 187 l/ha): 42%
% Herbicidal activity (AMAPA; 19 DAT, g ai/ha A-1 50, B-5 1066, growth stage 16, height 15-25 cm, water volume 187 l/ha): 52%
% Herbicidal activity (AMAPA; 21 DAT, g ai/ha A-1 12.5, B-5 1066, growth stage 12-28, height 7-20 cm, water volume 140 l/ha): 89%
% Herbicidal activity (AMAPA; 21 DAT, g ai/ha A-1 50, B-5 1066, height 5-23 cm, water volume 140 l/ha): 74%
% Herbicidal activity (AMARE): 88%
